The values below come from ChEMBL document CHEMBL5303573, “Mapping human microbiome drug metabolism by gut bacteria and their genes” (Nature, 2019).

The first data set can be described thus: The drug is tested on Collinsella intestinalis strain: DSM13280 for biotransformation. The drug concentrations were measured before and after a 12-h incubation by liquid-chromatography-coupled mass spectrometry (LC–MS). The note with it: 2 µM.
With `CCN(CC)C(C)CN1c2ccccc2Sc2ccccc21` (stereo not drawn) [ETHOPROPAZINE], the “Bacterial Biotransformation” value was “Compound NOT metabolized”.

Consider `O=C1NCC2(CCN(CCc3ccccc3)CC2)O1` [FENSPIRIDE], for which the “Bacterial Biotransformation” value was “Compound NOT metabolized”.

A further data set in a line: The drug is tested on Enterobacter cancerogenus strain: ATCC35316 for biotransformation. The drug concentrations were measured before and after a 12-h incubation by liquid-chromatography-coupled mass spectrometry (LC–MS). Conditions: 2 µM.
As to `O=C1NCC2(CCN(CCc3ccccc3)CC2)O1` [FENSPIRIDE], the “Bacterial Biotransformation” value is recorded as “Compound NOT metabolized”.

For the next data set the following is noted: bacteroides stercoris, 12 h, 2 µM.
Description: The drug is tested on Bacteroides stercoris strain: ATCC43183 for biotransformation. The drug concentrations were measured before and after a 12-h incubation by liquid-chromatography-coupled mass spectrometry (LC–MS)
In the case of `CCN(CC)C(C)CN1c2ccccc2Sc2ccccc21` (stereo not drawn) [ETHOPROPAZINE], the “Bacterial Biotransformation” value is listed as “Compound NOT metabolized”.

Regarding `O=C1NCC2(CCN(CCc3ccccc3)CC2)O1` [FENSPIRIDE], the “Bacterial Biotransformation” value is recorded as “Compound metabolized”.

A short description of another data set: The drug is tested on Bacteroides ovatus strain: ATCC8483 for biotransformation. The drug concentrations were measured before and after a 12-h incubation by liquid-chromatography-coupled mass spectrometry (LC–MS). The note with it: 2 µM.
In the case of `CCN(CC)C(C)CN1c2ccccc2Sc2ccccc21` (stereo not drawn) [ETHOPROPAZINE], the “Bacterial Biotransformation” value is “Compound metabolized”.

Turning to `O=C1NCC2(CCN(CCc3ccccc3)CC2)O1` [FENSPIRIDE], the “Bacterial Biotransformation” value is on record as “Compound metabolized”.

A short description of the next data set: The drug is tested on Bacteroides coprophilus strain: DSM18228 for biotransformation. The drug concentrations were measured before and after a 12-h incubation by liquid-chromatography-coupled mass spectrometry (LC–MS). The note with it: 2 µM.
`CCN(CC)C(C)CN1c2ccccc2Sc2ccccc21` (stereo not drawn) [ETHOPROPAZINE]: the “Bacterial Biotransformation” value is recorded as “Compound NOT metabolized”.

In the case of `O=C1NCC2(CCN(CCc3ccccc3)CC2)O1` [FENSPIRIDE], the “Bacterial Biotransformation” value is recorded as “Compound metabolized”.

The next data set can be described thus: The drug is tested on Eubacterium rectale strain: ATCC33656 for biotransformation. The drug concentrations were measured before and after a 12-h incubation by liquid-chromatography-coupled mass spectrometry (LC–MS). The note with it: agathobacter rectalis, 2 µM.
`CCN(CC)C(C)CN1c2ccccc2Sc2ccccc21` (stereo not drawn) [ETHOPROPAZINE]: the “Bacterial Biotransformation” value is recorded as “Compound NOT metabolized”.

In the case of `O=C1NCC2(CCN(CCc3ccccc3)CC2)O1` [FENSPIRIDE], the “Bacterial Biotransformation” value is “Compound NOT metabolized”.

A further data set in a line: The drug is tested on Subdoligranulum variabile strain: DSM15176 for biotransformation. The drug concentrations were measured before and after a 12-h incubation by liquid-chromatography-coupled mass spectrometry (LC–MS). The note with it: 2 µM.
As to `CCN(CC)C(C)CN1c2ccccc2Sc2ccccc21` (stereo not drawn) [ETHOPROPAZINE], the “Bacterial Biotransformation” value is given as “Compound NOT metabolized”.

The nature of another data set: The drug is tested on Bacteroides fragilis strain: HMW610 for biotransformation. The drug concentrations were measured before and after a 12-h incubation by liquid-chromatography-coupled mass spectrometry (LC–MS). The note with it: 2 µM.
In the case of `CCN(CC)C(C)CN1c2ccccc2Sc2ccccc21` (stereo not drawn) [ETHOPROPAZINE], the “Bacterial Biotransformation” value was “Compound NOT metabolized”.

For the compound `O=C1NCC2(CCN(CCc3ccccc3)CC2)O1` [FENSPIRIDE], the “Bacterial Biotransformation” value is reported as “Compound metabolized”.

The nature of the next data set: The drug is tested on Bacteroides fragilis strain: ATCC43859 for biotransformation. The drug concentrations were measured before and after a 12-h incubation by liquid-chromatography-coupled mass spectrometry (LC–MS). Conditions: 2 µM.
Turning to `O=C1NCC2(CCN(CCc3ccccc3)CC2)O1` [FENSPIRIDE], the “Bacterial Biotransformation” value is given as “Compound metabolized”.

The next data set is described as follows: The drug is tested on Bacteroides pectinophilus strain: ATCC43243 for biotransformation. The drug concentrations were measured before and after a 12-h incubation by liquid-chromatography-coupled mass spectrometry (LC–MS). Conditions: 2 µM.
As to `CCN(CC)C(C)CN1c2ccccc2Sc2ccccc21` (stereo not drawn) [ETHOPROPAZINE], the “Bacterial Biotransformation” value is “Compound metabolized”.

For `O=C1NCC2(CCN(CCc3ccccc3)CC2)O1` [FENSPIRIDE], the “Bacterial Biotransformation” value is reported as “Compound NOT metabolized”.

The next data set is described as follows: The drug is tested on Dorea formicigenerans strain: ATCC27755 for biotransformation. The drug concentrations were measured before and after a 12-h incubation by liquid-chromatography-coupled mass spectrometry (LC–MS). Conditions: 2 µM.
Turning to `CCN(CC)C(C)CN1c2ccccc2Sc2ccccc21` (stereo not drawn) [ETHOPROPAZINE], the “Bacterial Biotransformation” value is “Compound NOT metabolized”.

For `O=C1NCC2(CCN(CCc3ccccc3)CC2)O1` [FENSPIRIDE], the “Bacterial Biotransformation” value is “Compound NOT metabolized”.

The nature of another data set: The drug is tested on Alistipes indistinctus strain: DSM22520 for biotransformation. The drug concentrations were measured before and after a 12-h incubation by liquid-chromatography-coupled mass spectrometry (LC–MS). Conditions: 2 µM.
Take `CCN(CC)C(C)CN1c2ccccc2Sc2ccccc21` (stereo not drawn) [ETHOPROPAZINE]: the “Bacterial Biotransformation” value is reported as “Compound NOT metabolized”.

For the compound `O=C1NCC2(CCN(CCc3ccccc3)CC2)O1` [FENSPIRIDE], the “Bacterial Biotransformation” value is given as “Compound NOT metabolized”.

A further data set in a line: The drug is tested on Blautia luti strain: DSM14534 for biotransformation. The drug concentrations were measured before and after a 12-h incubation by liquid-chromatography-coupled mass spectrometry (LC–MS). In kind it is ADME. Further details: dose 2 uM, timepoint 0 vs 12 hours. Conditions: 2 µM.
For the compound `CCN(CC)C(C)CN1c2ccccc2Sc2ccccc21` (stereo not drawn) [ETHOPROPAZINE], the “Bacterial Biotransformation” value was “Compound NOT metabolized”.

For the compound `O=C1NCC2(CCN(CCc3ccccc3)CC2)O1` [FENSPIRIDE], the “Bacterial Biotransformation” value is given as “Compound NOT metabolized”.

The next data set is described as follows: The drug is tested on Ruminococcus torques strain: ATCC27756 for biotransformation. The drug concentrations were measured before and after a 12-h incubation by liquid-chromatography-coupled mass spectrometry (LC–MS). In kind it is ADME. On the set-up: dose 2 uM, timepoint 0 vs 12 hours. Conditions: 2 µM.
For `O=C1NCC2(CCN(CCc3ccccc3)CC2)O1` [FENSPIRIDE], the “Bacterial Biotransformation” value is listed as “Compound NOT metabolized”.

Another data set is described as follows: The drug is tested on Clostridium asparagiforme strain: DSM15981 for biotransformation. The drug concentrations were measured before and after a 12-h incubation by liquid-chromatography-coupled mass spectrometry (LC–MS). It is filed as ADME. On the set-up: dose 2 uM, timepoint 0 vs 12 hours. The note with it: enterocloster asparagiformis, 2 µM.
For `CCN(CC)C(C)CN1c2ccccc2Sc2ccccc21` (stereo not drawn) [ETHOPROPAZINE], the “Bacterial Biotransformation” value is given as “Compound NOT metabolized”.

`O=C1NCC2(CCN(CCc3ccccc3)CC2)O1` [FENSPIRIDE]: the “Bacterial Biotransformation” value is “Compound NOT metabolized”.

A short description of the next data set: The drug is tested on Coprococcus comes strain: ATCC27758 for biotransformation. The drug concentrations were measured before and after a 12-h incubation by liquid-chromatography-coupled mass spectrometry (LC–MS). In kind it is ADME. Further details: dose 2 uM, timepoint 0 vs 12 hours. Conditions: 2 µM.
In the case of `CCN(CC)C(C)CN1c2ccccc2Sc2ccccc21` (stereo not drawn) [ETHOPROPAZINE], the “Bacterial Biotransformation” value was “Compound NOT metabolized”.

For the compound `O=C1NCC2(CCN(CCc3ccccc3)CC2)O1` [FENSPIRIDE], the “Bacterial Biotransformation” value is reported as “Compound NOT metabolized”.

A short description of a further data set: The drug is tested on Clostridium symbiosum strain: ATCC14940 for biotransformation. The drug concentrations were measured before and after a 12-h incubation by liquid-chromatography-coupled mass spectrometry (LC–MS). Conditions: 2 µM.
As to `CCN(CC)C(C)CN1c2ccccc2Sc2ccccc21` (stereo not drawn) [ETHOPROPAZINE], the “Bacterial Biotransformation” value is “Compound NOT metabolized”.

On to `O=C1NCC2(CCN(CCc3ccccc3)CC2)O1` [FENSPIRIDE], for which the “Bacterial Biotransformation” value was “Compound NOT metabolized”.

A short description of a further data set: The drug is tested on Edwardsiella tarda strain: ATCC23685 for biotransformation. The drug concentrations were measured before and after a 12-h incubation by liquid-chromatography-coupled mass spectrometry (LC–MS). Conditions: 2 µM.
As to `O=C1NCC2(CCN(CCc3ccccc3)CC2)O1` [FENSPIRIDE], the “Bacterial Biotransformation” value was “Compound NOT metabolized”.

The conditions of another data set: enterocloster bolteae, 12 h, 2 µM.
Description: The drug is tested on Clostridium bolteae strain: ATCCBAA-613 for biotransformation. The drug concentrations were measured before and after a 12-h incubation by liquid-chromatography-coupled mass spectrometry (LC–MS)
For `CCN(CC)C(C)CN1c2ccccc2Sc2ccccc21` (stereo not drawn) [ETHOPROPAZINE], the “Bacterial Biotransformation” value is given as “Compound NOT metabolized”.

As for `O=C1NCC2(CCN(CCc3ccccc3)CC2)O1` [FENSPIRIDE], the “Bacterial Biotransformation” value is on record as “Compound NOT metabolized”.
